Legend:
BK channels = target: T1, BK channels (Homo sapiens, UniProt Q12791); experiment: BK channel opening activity, two-electrode voltage clamp in Xenopus laevis oocytes; assay type: cell-based
T1 construct: expressed in transfected cells; host or cells: Xenopus laevis oocytes
Method: In this example the BK channel opening activity of Compound 9 (FIGS. 1A and 1B) is determined using BK channels heterologously expressed in Xenopus laevis oocytes.
The electrical current through the BK channel was measured using conventional two-electrode voltage clamp. BK currents were activated by repeating ramp protocols. In brief, the membrane potential was continuously changed from −120 mV to +120 mV within a 2 s period. The threshold for BK activation is approximately +30 mV under control conditions. Compounds were applied for 100 s during which the ramp protocol was repeated 10 times with 10 s intervals. In between the ramp protocols the membrane potential was clamped at −80 mV. The first three compound applications were control blanks where the current level is allowed to stabilize.
In order to evaluate the ability of the compounds to shift the BK activation curve towards lower membrane potentials, the BK current was transformed into conductance by using Ohm's law […], where g is the conductance, I is the current, Ememb is the membrane potential and Erev is the reversal potential. The extracellular solution for these experiments contained 2.5 mM K+ and the intracellular K+ concentration of an oocyte was estimated to be 100 mM. Under those conditions, Nernst equation predicts a reversal potential of Erev=−93.2 mV. The control conductance level at a membrane potential of +100 mV was calculated, and the compound effect was evaluated as the potential difference, ΔV, to the membrane potential at which the same conductance level was obtained in the presence of compound.
The concentration response curve for this potential difference was fitted to the sigmoidal logistic equation: ΔV=ΔVmax/(1+(EC50/[compound])^n), where ΔVmax represents the maximal left shift of the BK activation curve, EC50 is the concentration causing a half maximal response, and n is the slope coefficient.

T1 sequence (Q12791 whole entry): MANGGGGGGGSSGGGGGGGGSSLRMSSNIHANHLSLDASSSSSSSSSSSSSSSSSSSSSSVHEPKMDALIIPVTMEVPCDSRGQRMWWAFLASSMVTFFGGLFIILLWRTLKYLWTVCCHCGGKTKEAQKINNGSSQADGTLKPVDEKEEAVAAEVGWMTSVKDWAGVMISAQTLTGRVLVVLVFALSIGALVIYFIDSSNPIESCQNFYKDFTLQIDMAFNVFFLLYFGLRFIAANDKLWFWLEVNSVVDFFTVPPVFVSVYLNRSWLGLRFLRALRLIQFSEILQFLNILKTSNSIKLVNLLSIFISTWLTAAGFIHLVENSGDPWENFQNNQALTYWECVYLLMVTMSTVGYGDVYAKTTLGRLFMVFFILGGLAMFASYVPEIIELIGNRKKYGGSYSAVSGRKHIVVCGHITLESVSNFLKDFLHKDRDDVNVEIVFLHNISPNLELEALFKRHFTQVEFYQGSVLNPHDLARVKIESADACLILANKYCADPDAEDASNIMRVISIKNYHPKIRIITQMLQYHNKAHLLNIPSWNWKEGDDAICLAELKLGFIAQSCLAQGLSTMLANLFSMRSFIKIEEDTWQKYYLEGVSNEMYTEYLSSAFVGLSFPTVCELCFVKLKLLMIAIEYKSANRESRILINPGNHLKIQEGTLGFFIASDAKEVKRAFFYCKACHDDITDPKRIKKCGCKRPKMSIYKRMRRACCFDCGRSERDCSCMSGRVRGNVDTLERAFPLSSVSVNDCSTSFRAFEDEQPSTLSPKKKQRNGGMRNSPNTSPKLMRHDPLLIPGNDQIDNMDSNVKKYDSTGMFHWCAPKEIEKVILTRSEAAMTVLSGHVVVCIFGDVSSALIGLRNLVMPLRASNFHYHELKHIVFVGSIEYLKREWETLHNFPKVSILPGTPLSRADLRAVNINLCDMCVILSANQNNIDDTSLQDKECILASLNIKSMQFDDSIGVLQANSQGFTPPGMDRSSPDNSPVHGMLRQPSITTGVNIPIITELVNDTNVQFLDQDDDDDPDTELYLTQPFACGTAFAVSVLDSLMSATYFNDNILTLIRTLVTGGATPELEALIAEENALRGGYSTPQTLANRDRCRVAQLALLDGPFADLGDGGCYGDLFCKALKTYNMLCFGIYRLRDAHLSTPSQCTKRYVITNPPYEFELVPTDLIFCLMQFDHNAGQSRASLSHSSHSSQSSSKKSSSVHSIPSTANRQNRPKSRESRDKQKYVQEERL

SMILES | melting point [°C] | further results
COc1ccc(-n2cc(/C=C/c3nnn[nH]3)c(-c3ccc(Cl)c(F)c3)n2)cc1Cl [Compound 5, 5-{(E)-2-[3-(4-Chloro-3-fluorophenyl)-1-(3-chloro-4-methoxy-phenyl)-1H-pyrazol-4-yl]-vinyl}-1H-tetrazole] | 128.4 to 130 | 
COc1ccc(-n2cc(/C=C/C(=O)NS(C)(=O)=O)c(-c3ccc(Cl)c(F)c3)n2)cc1Cl [Compound 6, N-{(E)-3-[3-(4-Chloro-3-fluoro-phenyl)-1-(3-chloro-4-methoxy-phenyl)-1H-pyrazol-4-yl]-acryloyl}-methanesulfonamide] | 269.3 to 270.5 | 
COc1ccc(-n2cc(/C=C/C(=O)O)c(-c3ccc(Cl)c(F)c3)n2)cc1Cl [Compound 3, (E)-3-[3-(4-Chloro-3-fluoro-phenyl)-1-(3-chloro-4-methoxy-phenyl)-1H-pyrazol-4-yl]-acrylic acid] | 240.2 to 241.3 | 
Clc1ccc(-c2nn(-c3ccc(Br)cc3)cc2CCc2nnn[nH]2)cc1 [Compound 9, 5-{2-[1-(4-Bromo-phenyl)-3-(4-chloro-phenyl)-1H-pyrazol-4-yl]-ethyl}-1H-tetrazole] |  | EC50 (BK channels; BK channels heterologously expressed in Xenopus laevis oocytes, ramp -120 to +120 mV, 0.01-31.6 μM, fit of ΔV vs concentration, read-out: EC50 for the left-shift of the BK activation curve): 1.4 µM; ΔVmax, maximal left shift of the BK activation curve (BK channels; BK channels heterologously expressed in Xenopus laevis oocytes, ΔV referred to control conductance at +100 mV, 0.01-31.6 μM): −96 mV; BK current level at depolarizing potentials (BK channels; increasing concentrations (0.01-31.6 μM) applied, Xenopus laevis oocytes): marked increase in the current level

Further lines, with some results ahead:

melting point [°C] | SMILES | further results
216.8 to 218.2 | COc1ccc(-n2cc(CC(=O)NS(C)(=O)=O)c(-c3ccc(Cl)c(F)c3)n2)cc1Cl [Compound 18, N-{2-[3-(4-Chloro-3-fluorophenyl)-1-(3-chloro-4-methoxy-phenyl)-1H-pyrazol-4-yl]-acetyl}-methanesulfonamide] | 
200 to 201 | O=c1[nH]c(Cc2cn(-c3cc(C(F)(F)F)cc(C(F)(F)F)c3)nc2-c2cccc(Cl)c2)no1 [Compound 17, 3-[1-(3,5-Bis-trifluoromethyl-phenyl)-3-(3-chloro-phenyl)-1H-pyrazol-4-ylmethyl]-4H-[1,2,4]oxadiazol-5-one] | 
282.8 to 284.2 | COc1ccc(-n2cc(/C=C(\C#N)C(=O)O)c(-c3ccc(Cl)c(F)c3)n2)cc1Cl [Compound 14, (E)-3-[3-(4-Chloro-3-fluoro-phenyl)-1-(3-chloro-4-methoxy-phenyl)-1H-pyrazol-4-yl]-2-cyano-acrylic acid] | 

From patent US20100179203A1, “NOVEL PYRAZOLE DERIVATIVES USEFUL AS POTASSIUM CHANNEL MODULATORS” (priority 2007, published 2010)
